Converted amounts (≈) assume the structure as drawn. The source made the active and inactive calls. How the calls were made is not given here.
Tests used:
Staphylococcus aureus = assay: Antibacterial activity against Staphylococcus aureus 134/93 after 24 hrs by broth microdilution method; assay type: functional; settings: for MIC: Staphylococcus aureus, 134/93, 24 h
Escherichia coli = assay: Antibacterial activity against Escherichia coli after 24 hrs by broth microdilution method; assay type: functional, organism-based
Candida albicans = assay: Antibacterial activity against Candida albicans after 24 hrs by broth microdilution method; assay type: functional, organism-based
[1] = Partition coefficient, log P of the compound; assay type: physicochemical; settings: octanol/water
[2] = system: Mycolicibacterium smegmatis; assay: Antibacterial activity against Mycobacterium smegmatis SG987 after 24 hrs by broth microdilution method; assay type: functional; settings: for MIC: Mycolicibacterium smegmatis, SG987, 24 h

With `CCCCCCc1cccc2c(C3=C(Br)C(=O)NC3=O)c(-c3ccc(OC)cc3)[nH]c12` the “-logMIC” value (Staphylococcus aureus) was 6.4, the MIC (Staphylococcus aureus) was 0.4 µM (≈ 0.193 µg/mL) and the Activity (Escherichia coli) was “inactive”. For the same compound, the Activity (Candida albicans) was “inactive” and the logP [1] was 4.27.

For `CCc1ccc2[nH]c(-c3cccc(OC)c3)c(C3=C(Br)C(=O)NC3=O)c2c1`, the “-logMIC” value (Staphylococcus aureus) was 6.3, the MIC (Staphylococcus aureus) was 0.5 µM (≈ 0.213 µg/mL) and the “-logMIC” value [2] was 5.4. For the same compound, the MIC [2] was 3.98 µM (≈ 1.69 µg/mL), the Activity (Escherichia coli) was “inactive” and the Activity (Candida albicans) was “inactive”. It also gave a logP [1] of 3.35.

In the case of `CCCCCc1ccc2[nH]c(-c3ccc(OC)cc3)c(C3=C(Br)C(=O)NC3=O)c2c1`, the “-logMIC” value (Staphylococcus aureus) is reported as 6.1, the MIC (Staphylococcus aureus) is reported as 0.85 µM (≈ 0.397 µg/mL) and the “-logMIC” value [2] is reported as 5.5. The MIC [2] was 3.3 µM (≈ 1.54 µg/mL), the Activity (Escherichia coli) was “inactive” and the Activity (Candida albicans) was “inactive”. For the same compound, the logP [1] was 4.1.

For `O=C(CCCCc1[nH]c2ccccc2c1C1=C(Br)C(=O)NC1=O)Nc1ccccc1`, the “-logMIC” value (Staphylococcus aureus) was 5.8, the MIC (Staphylococcus aureus) was 1.7 µM (≈ 0.793 µg/mL) and the “-logMIC” value [2] was 4.6. The MIC [2] was 26 µM (≈ 12.1 µg/mL), the Activity (Escherichia coli) was “inactive” and the Activity (Candida albicans) was “inactive”. The logP [1] was 2.56.

For `CCCCCCOc1ccc2[nH]c(-c3ccc(OC)cc3)c(C3=C(Br)C(=O)NC3=O)c2c1`, the Activity (Escherichia coli) was “inactive”, the Activity (Candida albicans) was “inactive” and the logP [1] was 4.1.

In the case of `CCCCOc1ccc2[nH]c(-c3ccc(OC)cc3)c(C3=C(Br)C(=O)NC3=O)c2c1`, the “-logMIC” value (Staphylococcus aureus) is reported as 7, the MIC (Staphylococcus aureus) is reported as 0.1 µM (≈ 0.0469 µg/mL) and the Activity (Escherichia coli) is reported as “inactive”. The Activity (Candida albicans) was “inactive” and the logP [1] was 3.43.

In the case of `O=C1NC(=O)C(c2c(-c3ccc(OCc4cccc5ccccc45)cc3)[nH]c3ccccc23)=C1Br`, the “-logMIC” value (Staphylococcus aureus) is reported as 5.8, the MIC (Staphylococcus aureus) is reported as 1.5 µM (≈ 0.785 µg/mL) and the “-logMIC” value [2] is reported as 5.5. For the same compound, the MIC [2] was 3.16 µM (≈ 1.65 µg/mL), the Activity (Escherichia coli) was “inactive” and the Activity (Candida albicans) was “inactive”. The logP [1] was 3.76.

In the case of `CCCCc1ccc2[nH]c(-c3ccc(OC)cc3)c(C3=C(Br)C(=O)NC3=O)c2c1`, the “-logMIC” value (Staphylococcus aureus) is reported as 6.4, the MIC (Staphylococcus aureus) is reported as 0.44 µM (≈ 0.199 µg/mL) and the “-logMIC” value [2] is reported as 5.5. For the same compound, the MIC [2] was 3.4 µM (≈ 1.54 µg/mL), the Activity (Escherichia coli) was “inactive” and the Activity (Candida albicans) was “inactive”. It also gave a logP [1] of 3.83.

For `CCCc1ccc2[nH]c(-c3ccccc3)c(C3=C(Br)C(=O)NC3=O)c2c1`, the “-logMIC” value (Staphylococcus aureus) was 6.3, the MIC (Staphylococcus aureus) was 0.5 µM (≈ 0.205 µg/mL) and the “-logMIC” value [2] was 5.4. The MIC [2] was 3.8 µM (≈ 1.56 µg/mL), the Activity (Escherichia coli) was “inactive” and the Activity (Candida albicans) was “inactive”. For the same compound, the logP [1] was 3.43.

For `COc1ccc(-c2[nH]c3c(C)cccc3c2C2=C(Br)C(=O)NC2=O)cc1`, the “-logMIC” value (Staphylococcus aureus) was 5.7, the MIC (Staphylococcus aureus) was 2 µM (≈ 0.823 µg/mL) and the “-logMIC” value [2] was 4.5. For the same compound, the MIC [2] was 30.4 µM (≈ 12.5 µg/mL), the Activity (Escherichia coli) was “inactive” and the Activity (Candida albicans) was “inactive”. The logP [1] was 3.12.

For `CCCCCOc1ccc2[nH]c(-c3ccccc3)c(C3=C(Br)C(=O)NC3=O)c2c1`, the “-logMIC” value (Staphylococcus aureus) was 4.6, the MIC (Staphylococcus aureus) was 27 µM (≈ 12.2 µg/mL) and the “-logMIC” value [2] was 4.6. For the same compound, the MIC [2] was 27.5 µM (≈ 12.5 µg/mL), the Activity (Escherichia coli) was “inactive” and the Activity (Candida albicans) was “inactive”. The logP [1] was 3.75.

In the case of `CCCCc1ccc2[nH]c(-c3ccccc3)c(C3=C(Br)C(=O)NC3=O)c2c1`, the “-logMIC” value (Staphylococcus aureus) is reported as 6.6, the MIC (Staphylococcus aureus) is reported as 0.24 µM (≈ 0.102 µg/mL) and the “-logMIC” value [2] is reported as 5.7. For the same compound, the MIC [2] was 1.9 µM (≈ 0.804 µg/mL), the Activity (Escherichia coli) was “inactive” and the Activity (Candida albicans) was “inactive”. For the same compound, the logP [1] was 3.74.

In the case of `O=C(CCCCCc1[nH]c2ccccc2c1C1=C(Br)C(=O)NC1=O)Nc1ccccc1`, the “-logMIC” value (Staphylococcus aureus) is reported as 7, the MIC (Staphylococcus aureus) is reported as 0.1 µM (≈ 0.048 µg/mL) and the “-logMIC” value [2] is reported as 4.6. The MIC [2] was 26 µM (≈ 12.5 µg/mL), the Activity (Escherichia coli) was “inactive” and the Activity (Candida albicans) was “inactive”. The logP [1] was 2.68.

In the case of `CCCOc1ccc2[nH]c(-c3ccc(OC)cc3)c(C3=C(Br)C(=O)NC3=O)c2c1`, the “-logMIC” value (Staphylococcus aureus) is reported as 6.4, the MIC (Staphylococcus aureus) is reported as 0.44 µM (≈ 0.2 µg/mL) and the Activity (Escherichia coli) is reported as “inactive”. The Activity (Candida albicans) was “inactive” and the logP [1] was 3.12.

For `CCc1cccc2c(C3=C(Br)C(=O)NC3=O)c(-c3ccc(OC)cc3)[nH]c12`, the “-logMIC” value (Staphylococcus aureus) was 6.3, the MIC (Staphylococcus aureus) was 0.5 µM (≈ 0.213 µg/mL) and the “-logMIC” value [2] was 4.5. For the same compound, the MIC [2] was 29.4 µM (≈ 12.5 µg/mL), the Activity (Escherichia coli) was “inactive” and the Activity (Candida albicans) was “inactive”. It also gave a logP [1] of 3.35.

In the case of `CCOc1ccc2[nH]c(-c3cccc(OC)c3)c(C3=C(Br)C(=O)NC3=O)c2c1`, the “-logMIC” value (Staphylococcus aureus) is reported as 5.5, the MIC (Staphylococcus aureus) is reported as 3.5 µM (≈ 1.54 µg/mL) and the “-logMIC” value [2] is reported as 5.2. For the same compound, the MIC [2] was 6.31 µM (≈ 2.78 µg/mL), the Activity (Escherichia coli) was “inactive” and the Activity (Candida albicans) was “inactive”. The logP [1] was 2.97.

For `CCCCCc1cccc2c(C3=C(Br)C(=O)NC3=O)c(-c3ccccc3)[nH]c12`, the “-logMIC” value (Staphylococcus aureus) was 6.3, the MIC (Staphylococcus aureus) was 0.5 µM (≈ 0.219 µg/mL) and the “-logMIC” value [2] was 4.9. The MIC [2] was 14.3 µM (≈ 6.25 µg/mL), the Activity (Escherichia coli) was “inactive” and the Activity (Candida albicans) was “inactive”. The logP [1] was 4.11.

For `CCCCCCc1ccc2[nH]c(-c3ccc(OC)cc3)c(C3=C(Br)C(=O)NC3=O)c2c1`, the Activity (Escherichia coli) was “inactive” and the Activity (Candida albicans) was “inactive”.

In the case of `CCCCCCc1ccc2[nH]c(-c3cccc(OC)c3)c(C3=C(Br)C(=O)NC3=O)c2c1`, the “-logMIC” value (Staphylococcus aureus) is reported as 4.6, the MIC (Staphylococcus aureus) is reported as 26 µM (≈ 12.5 µg/mL) and the “-logMIC” value [2] is reported as 5.2. For the same compound, the MIC [2] was 6.31 µM (≈ 3.04 µg/mL), the Activity (Escherichia coli) was “inactive” and the Activity (Candida albicans) was “inactive”. The logP [1] was 4.26.

For `CCOc1ccc2[nH]c(-c3ccccc3)c(C3=C(Br)C(=O)NC3=O)c2c1`, the “-logMIC” value (Staphylococcus aureus) was 5.4, the MIC (Staphylococcus aureus) was 3.8 µM (≈ 1.56 µg/mL) and the “-logMIC” value [2] was 4.5. For the same compound, the MIC [2] was 30.4 µM (≈ 12.5 µg/mL), the Activity (Escherichia coli) was “inactive” and the Activity (Candida albicans) was “inactive”. For the same compound, the logP [1] was 2.77.

For `CCCOc1ccc2[nH]c(-c3ccccc3)c(C3=C(Br)C(=O)NC3=O)c2c1`, the “-logMIC” value (Staphylococcus aureus) was 6, the MIC (Staphylococcus aureus) was 0.95 µM (≈ 0.404 µg/mL) and the “-logMIC” value [2] was 4.2. For the same compound, the MIC [2] was 58.8 µM (≈ 25 µg/mL), the Activity (Escherichia coli) was “inactive” and the Activity (Candida albicans) was “inactive”. For the same compound, the logP [1] was 3.16.

With `CCOc1ccc2[nH]c(-c3ccc(OC)cc3)c(C3=C(Br)C(=O)NC3=O)c2c1` the “-logMIC” value (Staphylococcus aureus) was 5.7, the MIC (Staphylococcus aureus) was 2 µM (≈ 0.883 µg/mL) and the “-logMIC” value [2] was 4.8. The MIC [2] was 14.1 µM (≈ 6.22 µg/mL), the Activity (Escherichia coli) was “inactive” and the Activity (Candida albicans) was “inactive”. It also gave a logP [1] of 2.77.

In the case of `CCCCCOc1ccc2[nH]c(-c3ccc(OC)cc3)c(C3=C(Br)C(=O)NC3=O)c2c1`, the Activity (Escherichia coli) is reported as “inactive”, the Activity (Candida albicans) is reported as “inactive” and the logP [1] is reported as 3.77.

In the case of `CCCCCOc1ccc(-c2[nH]c3ccccc3c2C2=C(Br)C(=O)NC2=O)cc1`, the “-logMIC” value (Staphylococcus aureus) is reported as 6.1, the MIC (Staphylococcus aureus) is reported as 0.88 µM (≈ 0.399 µg/mL) and the “-logMIC” value [2] is reported as 3.9. The MIC [2] was 126 µM (≈ 57.1 µg/mL), the Activity (Escherichia coli) was “inactive” and the Activity (Candida albicans) was “inactive”. For the same compound, the logP [1] was 4.2.

For `CCc1ccc2[nH]c(-c3ccccc3)c(C3=C(Br)C(=O)NC3=O)c2c1`, the “-logMIC” value (Staphylococcus aureus) was 6.9, the MIC (Staphylococcus aureus) was 0.13 µM (≈ 0.0514 µg/mL) and the “-logMIC” value [2] was 5.4. The MIC [2] was 4 µM (≈ 1.58 µg/mL), the Activity (Escherichia coli) was “inactive” and the Activity (Candida albicans) was “inactive”. The logP [1] was 3.15.

For `CCCCc1cccc2c(C3=C(Br)C(=O)NC3=O)c(-c3ccc(OC)cc3)[nH]c12`, the “-logMIC” value (Staphylococcus aureus) was 6.6, the MIC (Staphylococcus aureus) was 0.25 µM (≈ 0.113 µg/mL) and the Activity (Escherichia coli) was “inactive”. For the same compound, the Activity (Candida albicans) was “inactive” and the logP [1] was 3.81.

For `CCCCCCCCCCOc1ccc(-c2[nH]c3ccccc3c2C2=C(Br)C(=O)NC2=O)cc1`, the “-logMIC” value [2] was 4, the MIC [2] was 100 µM (≈ 52.3 µg/mL) and the Activity (Escherichia coli) was “inactive”. The Activity (Candida albicans) was “inactive” and the logP [1] was 5.94.

With `O=C(O)c1cn(C2CC2)c2cc(N3CCNCC3)c(F)cc2c1=O` [CIPROFLOXACIN] the “-logMIC” value (Staphylococcus aureus) was 4.4, the MIC (Staphylococcus aureus) was 38.1 µM (≈ 12.6 µg/mL) and the “-logMIC” value [2] was 5.9. The MIC [2] was 1.2 µM (≈ 0.398 µg/mL).

For `CCCCCCc1ccc2[nH]c(-c3ccccc3)c(C3=C(Br)C(=O)NC3=O)c2c1`, the Activity (Escherichia coli) was “inactive”, the Activity (Candida albicans) was “inactive” and the logP [1] was 4.39.

For `CCCCCCOc1ccc2[nH]c(-c3ccccc3)c(C3=C(Br)C(=O)NC3=O)c2c1`, the Activity (Escherichia coli) was “inactive”, the Activity (Candida albicans) was “inactive” and the logP [1] was 4.08.

Reference: ChEMBL document CHEMBL1149805, “Antibacterial activity of a novel series of 3-bromo-4-(1H-3-indolyl)-2,5-dihydro-1H-2,5-pyrroledione derivatives--an extended structure-activity relationship study” (Eur J Med Chem, 2008)
